Results as given in US5798356A, “Angiostatic compounds” (Alcon Laboratories, Inc., priority 1996, dated 1998).

Experiments:
rabbit cornea = assay: rabbit model of lipopolysaccharide (LPS) induced corneal neovascularization; assay type: in vivo; settings: Elvax-40 pellet in cornea, Elvax control = 100
Description: Representative compounds of the present invention were assayed for their efficacy in inhibiting angiogenesis in vivo, in a rabbit model of lipopolysaccharide (LPS) induced corneal neovascularization. Briefly, the test compound and LPS (a stimulus for initiating neovascularization) are incorporated into separate Elvax-40 pellets as described in D. […] The area covered by new vessel formation in response to LPS is measured and suppression of neovascularization by test compounds is estimated at the end of the test period. The data is expressed as a relative area units in relation to the Elvax control (100).

[1] = system: human umbilical vein endothelial cells (HUVEC); assay: inhibition of endothelial cell proliferation (HUVEC); assay type: cell-based; settings: for inhibition at 1 µM / inhibition at 5 µM / inhibition at 10 µM / inhibition at 25 µM: Homo sapiens; for inhibition at 25 µM: concentration 25 μM
Description: Representative compounds of the present invention were assayed for their efficacy in inhibiting endothelial cell proliferation. […] At mid-log phase the cells were detached from the plate and counted using a coulter counter. Viability tests were conducted using trypan blue. The data is expressed as percent inhibition based on the control number of endothelial cells counted.

[2] = system: human lung microvascular endothelial cells; assay: inhibition of 3H-thymidine uptake in DNA as a measure of DNA synthesis; assay type: cell-based; settings: Endothelial cell, 18 hours exposure, then 3H-thymidine 6 hours; for inhibition at 5 µM: concentration 5.0 μM; for inhibition at 10 µM: concentration 10 μM; for inhibition at 25 µM: concentration 25 μM
Description: Representative compounds of the present invention were assayed for their efficacy in inhibiting ^3 H-thymidine uptake in DNA as a measure of DNA synthesis (R.I. Freshney, Culture of Animal Cells, 3rd Edition, John Wiley and Sons, N.Y., N.Y., pages 277-278 (1994)). Briefly, human lung microvascular endothelial cells in mid-log phase were exposed to either a representative compound of the present invention or the vehicle (1.0% DMSO) for 18 hours. Cells were then incubated with ^3 H-thymidine for another 6 hours. DNA synthesis was stopped by the addition of cold 5% TCA solution and the relative synthesis assessed by measuring ^3 H-thymidine incorporated into the acid-insoluble product. The data is expressed as percent inhibition of uptake based on tritium counts in the vehicle control reactions.

[3] = system: chorioallantoic membrane (CAM); assay: inhibition of angiogenesis in a chorioallantoic membrane (CAM) model; assay type: in vivo, chicken embryo; settings: 10 μg in liposome/agarose bead on CAM, 2 days; percent responding embryos per nanomole relative to tetrahydrocortisol
Description: Representative compounds of the present invention were assayed for their efficacy in inhibiting angiogenesis in a chorioallantoic membrane (CAM) model (See, McNatt, et al., Angiostatic Activity and Metabolism of Cortisol in The Chorioallantoic Membrane (CAM) of the Chick Embryo, Journal of Steriod Biochemistry and Molecular Biology, volume 42, No. 7, pages 687-693 (1992)). Briefly, 10 μg of the test compound or reference compound (tetrahydrocortisol) were suspended in a liposome/agarose bead and placed on the CAM of a 5-6 day chicken embryo. Following 2 days of incubation, the CAMs were scored for relative angiostatic activity by comparing percent responding embryos per nanomole test compound to percent responding embryos for the reference compound.

| Compound | Relative Area of Neovascularization (rabbit cornea; day 4) | Relative Area of Neovascularization (rabbit cornea; day 9) | Relative Area of Neovascularization (rabbit cornea; day 15) | Relative Area of Neovascularization (rabbit cornea; day 22) | inhibition at 1 µM ([1]; concentration 1.0 μM) | inhibition at 5 µM ([1]; concentration 5.0 μM) | inhibition at 10 µM ([1]; concentration 10 μM) | inhibition at 25 µM [1] | RAF (Relative Angiostatic Factor) [3] | also measured |
| --- | --- | --- | --- | --- | --- | --- | --- | --- | --- | --- |
| COc1ccc2cc(C(C)C(=O)NCC3(C)CCc4c(C)c(O)c(C)c(C)c4O3)ccc2c1 (stereo not shown) [C] | 102 relative area units | 57 relative area units | 41 relative area units | 60 relative area units |  |  |  |  |  |  |
| COc1ccc2cc(C(C)C(=O)OCCC3(C)CCc4c(C)c(O)c(C)c(C)c4O3)ccc2c1 (stereo not shown) [Compound A] | 66 relative area units | 54 relative area units | 48 relative area units | 103 relative area units | 6.7% | 25.5% | 43.4% | 55.2% | 0.10 | inhibition at 5 µM [2]: 16.3%; inhibition at 10 µM [2]: 25.7%; inhibition at 15 µM ([2]; concentration 15 μM): 57.4%; inhibition at 20 µM ([2]; concentration 20 μM): 82.9%; inhibition at 25 µM [2]: 96.5% |
| C[C@]12CC[C@@H](O)C[C@H]1CC[C@@H]1[C@@H]2[C@@H](O)C[C@@]2(C)[C@H]1CC[C@]2(O)C(=O)CO [Tetrahydrocortisol, tetrahydrocortisol, reference compound] |  |  |  |  |  |  |  |  | 1.00 |  |
| Vitamin E [reference compound] |  |  |  |  |  |  |  |  |  | % Inhibition of Endothelial Cell Proliferation ([1]; concentration 1.0 μM): 0%; % Inhibition of Endothelial Cell Proliferation ([1]; concentration 5.0 μM): 0%; % Inhibition of Endothelial Cell Proliferation ([1]; concentration 10 μM): 1% |
| COc1ccc2cc(C(C)C(=O)OCC3(C)Cc4c(C)c(O)c(C)c(C)c4O3)ccc2c1 (stereo not shown) [Compound B] |  |  |  |  | 5% | 13.9% | 47.7% | 60.5% | 1.06 | inhibition at 5 µM [2]: 36.9%; inhibition at 10 µM [2]: 63.1%; inhibition at 25 µM [2]: 97.9% |
| Cc1c(C)c2c(c(C)c1O)CCC(C)(CCO)O2 (stereo not shown) [F] | 92 relative area units | 85 relative area units | 30 relative area units | 39 relative area units |  |  |  |  |  |  |
| Cc1c(C)c2c(c(C)c1OC(=O)CCC(=O)O)CCC(C)(CCCC(C)CCCC(C)CCCC(C)C)O2 (stereo not shown) [Compound G] |  |  |  |  | 43% | 8% | 35.1% | 65.5% | 1.21 |  |
| C[C@]12CCC(=O)C=C1CC[C@@H]1[C@@H]2[C@@H](O)C[C@@]2(C)[C@H]1CC[C@]2(O)C(=O)COC(=O)CCC(=O)O [Hydrocortisone hemisuccinate, reference compound] | 0 relative area units | 1.5 relative area units | 0.6 relative area units | 4.9 relative area units |  |  |  |  |  |  |
| Cc1c(C)c2c(c(C)c1O)CC(C)(CCN1CCN(C(c3ccc(F)cc3)c3ccc(F)cc3)CC1)O2 (stereo not shown) [Compound E] | 99 relative area units | 76 relative area units | 88 relative area units | 115 relative area units | 25% | 48% | 88% | 91% | 1.78 |  |
